Measured values from patent US20110178104A1, “Anti-Heparin Compounds” (POLYMEDIX INC., priority 2010, published 2011).
≈ marks a conversion by molar mass, not a printed value.

What was measured:
fondaparinux (FONDAPX) = test: FXa chromogenic assay (absence of plasma), fondaparinux; settings: fondaparinux 0.02 μg/mL, absence of plasma
enoxaparin (ENOX) = test: FXa chromogenic assay (absence of plasma), enoxaparin; settings: enoxaparin 0.1 μg/mL, absence of plasma
[1] = tested on: unfractionated heparin (UFH); test: aPTT clotting assay, UFH 0.2 U/mL in plasma (Example 7); format: biochemical; settings: UFH 0.2 U/mL in plasma
Procedure: (§1) aPTT clotting Assay. Unfractionated heparin was mixed with plasma at a final concentration of 0.2 U/mL. […] The ACL Elite Hemostasis analyzer (Beckman Coulter™) was used to add aPTT reagent (HemosIL SynthASil) to supplemented plasma. Clotting was initiated by addition of CaCl2 and time to clot was recorded.

enoxaparin = test: FXa amidolytic assay (Example 10), enoxaparin; settings: read-out: Enox FXa EC50; enoxaparin 0.1 ug/ml; human antithrombin, bovine Factor Xa
Procedure: (§2) Two μl of test agent are added (range between 0.01 and 23 ug/ml) and incubated for 5 minutes at 23° C. Bovine Factor Xa was added to a final concentration of 0.636 nkat/mL and incubated for a further 10 minutes at 23° C.

[2] = tested on: isolated human erythrocytes; test: in vitro; format: cell-based; settings: human RBC, 1 hour at 37° C.; for EC50: Homo sapiens, Erythrocyte, 1 h, read-out: Hemolysis EC50
Procedure: Hemolysis assay: Cytotoxicity was also evaluated in a hemolysis assay using isolated human erythrocytes. Pooled whole human blood was centrifuged to separate the red blood cells (RBC). The isolated RBCs were rinsed and diluted in Tris-buffered saline (TBS buffer, pH 7.4) to obtain a 0.22% RBC stock suspension. Serial two-fold dilutions of test agent were assayed over a concentration range of 1000 to 0.48 μg/ml with shaking for 1 hour at 37° C. At the conclusion of the incubation time, samples were centrifuged and 30 μl of the supernatant was added to 100 μl H2O. OD405 measurements were read for hemoglobin concentration. The bee venom peptide melittin was used as a positive control. EC50 values were determined using a four parameter logistic equation: Y=Bottom+(Top-Bottom)/(1+10̂((LogEC50-X)*HillSlope)).

tinzaparin = test: FXa amidolytic assay (Example 10), tinzaparin; settings: read-out: Tinzap FXa EC50; tinzaparin 0.1 ug/ml; human antithrombin, bovine Factor Xa
Procedure: as §2

fondaparinux = test: FXa amidolytic assay (Example 10), fondaparinux; settings: read-out: Fondap FXa EC50; fondaparinux 0.02 μg/mL; human antithrombin, bovine Factor Xa
Procedure: as §2

Unfractionated heparin = test: aPTT clotting assay, UFH 0.4 U/mL in plasma (Example 10); format: biochemical; settings: unfractionated heparin 0.4 U/mL in plasma; aPTT clotting
Procedure: as §1, with “Assay:” for “Assay.”, “0.4 U/mL (or concentration which increases aPTT time to between 120 and 300 seconds).” for “0.2 U/mL.”

Row | SMILES | FONDAPX (FXa) EC50 (fondaparinux (FONDAPX)) | ENOX (FXa) EC50 (enoxaparin (ENOX)) | UFH (aPTT) EC50 [1] | EC50 (enoxaparin) [nM] | Hemolysis EC50 [2] | EC50 (tinzaparin) [nM] | EC50 (fondaparinux) [nM] | EC50 (Unfractionated heparin) [nM] | EC50 [2] [µg/mL]
1 | COc1ccc(NC(=O)[C@H](CCCCN)NC(=O)c2cc(NC(=O)[C@H](CCCNC(N)=O)NC(=O)c3cc(NC(=O)[C@H](CCCCN)NC(=O)c4cc(NC(=O)[C@@H](N)CCCCN)ccc4OC)ccc3OC)ccc2OC)cc1C(N)=O [Compound 139] | 2.485 µg/mL | 0.3196 µg/mL | 2.46 µg/mL |  |  |  |  |  | 
2 | COc1ccc(NC(=O)[C@H](CCCNC(N)=O)NC(=O)c2cc(NC(=O)[C@H](CCCCN)NC(=O)c3cc(NC(=O)[C@H](CCCCN)NC(=O)c4cc(NC(=O)[C@@H](N)CCCCN)ccc4OC)ccc3OC)ccc2OC)cc1C(N)=O [Compound 140] | 4.636 µg/mL | 0.4309 µg/mL | 2.52 µg/mL |  |  |  |  |  | 
3 | COc1ccc(NC(=O)[C@H](CCCCN)NC(=O)c2cc(NC(=O)[C@@H](N)CCCCN)ccc2OC)cc1C(=O)N[C@@H](CCCCN)C(=O)Nc1ccc(SC)c(C(=O)N[C@@H](CCCCN)C(=O)Nc2ccc(SC)c(C(N)=O)c2)c1 [Compound 141] | inactive | inactive | inactive |  |  |  |  |  | 
4 | COc1ccc(NC(=O)[C@H](CCCCN)NC(=O)c2cc(NC(=O)[C@H](CCCCN)NC(=O)c3cc(NC(=O)[C@H](CCCCN)NC(=O)c4cc(NC(=O)[C@@H](N)CCCCN)ccc4OC)ccc3OC)ccc2OC)cc1C(=O)N[C@@H](CCCNC(N)=O)C(=O)O [Compound 142] | 7.045 µg/mL | 0.592 µg/mL | 2.88 µg/mL |  |  |  |  |  | 
5 | COc1ccc(NC(=O)[C@H](CCCCN)NC(=O)c2cc(NC(=O)[C@H](CCCCN)NC(=O)c3cc(NC(=O)[C@H](CCCCN)NC(=O)c4cc(NC(=O)[C@@H](N)CCCCN)ccc4OC)ccc3OC)ccc2OC)cc1C(=O)NCCCCCC(=O)O [Compound 143] | 12.700 µg/mL | 1.011 µg/mL | 2.96 µg/mL |  |  |  |  |  | 
6 | COc1ccc(NC(=O)[C@H](CCCCN)NC(=O)c2cc(NC(=O)[C@H](CCCCN)NC(=O)c3cc(NC(=O)[C@H](CCCCN)NC(=O)c4cc(NC(=O)[C@@H](N)CCCCN)ccc4OC)ccc3OC)ccc2OC)cc1C(=O)Nc1cccc(C(=O)O)c1 [Compound 144] | 1.051 µg/mL | 0.244 µg/mL | 3.13 µg/mL |  |  |  |  |  | 
7 | COc1ccc(NC(=O)[C@H](CCCCN)NC(=O)c2cc(NC(=O)[C@H](CCCCN)NC(=O)c3cc(NC(=O)[C@H](CCCCN)NC(=O)c4cc(NC(=O)[C@@H](N)CCCCN)ccc4OC)ccc3OC)ccc2OC)cc1C(=O)N[C@@H](CCC(=O)O)C(=O)O [Compound 145] | 9.463 µg/mL | 1.141 µg/mL | 4.26 µg/mL |  |  |  |  |  | 
8 | COc1ccc(NC(=O)[C@H](CCCCN)NC(=O)c2cc(NC(=O)[C@@H](N)CCCCN)ccc2OC)cc1C(=O)N[C@@H](CCCCN)C(=O)Nc1ccc(OC)c(C(=O)N[C@@H](CCCCN)C(=O)Nc2ccc(OC)c(C(=O)N[C@H](C)C(=O)O)c2)c1 [Compound 146] | 19.030 µg/mL | 1.027 µg/mL | 2.74 µg/mL |  |  |  |  |  | 
9 | COc1ccc(NC(=O)[C@H](CCCCN)NC(=O)c2cc(NC(=O)[C@H](CCCCN)NC(=O)c3cc(NC(=O)[C@H](CCCCN)NC(=O)c4cc(NC(=O)[C@@H](N)CCCCN)ccc4OC)ccc3OC)ccc2OC)cc1C(=O)N[C@@H](Cc1ccc(O)cc1)C(=O)O [Compound 265] |  |  |  | 138 | no significant decrease | 120 | 385 | 1450 | 
10 | COc1ccc(NC(=O)[C@@H](CCCNC(=N)N)NC(=O)c2cc(NC(=O)[C@@H](CCCNC(=N)N)NC(=O)c3cc(NC(=O)[C@@H](CCCNC(=N)N)NC(=O)c4cc(NC(=O)[C@H](N)CCCNC(=N)N)ccc4OC)ccc3OC)ccc2OC)cc1C(=O)NCC(=O)O [Compound 278] |  |  |  | 150 | no significant decrease | 132 | 408 | 1990 | 
11 | COc1ccc(NC(=O)[C@H](CCCNC(=N)N)NC(=O)c2cc(NC(=O)[C@H](CCCNC(=N)N)NC(=O)c3cc(NC(=O)[C@H](CCCNC(=N)N)NC(=O)c4cc(NC(=O)[C@@H](N)CCCNC(=N)N)ccc4OC)ccc3OCC(=O)O)ccc2OC)cc1C(N)=O [Compound 288] |  |  |  | 119 | no significant decrease | 102 | 390 | 2020 | 
12 | COc1ccc(NC(=O)[C@H](CCCNC(=N)N)NC(=O)c2cc(NC(=O)[C@H](CCCNC(=N)N)NC(=O)c3cc(NC(=O)[C@H](CCCNC(=N)N)NC(=O)c4cc(NC(C)=O)ccc4OC)ccc3OC)ccc2OC)cc1C(N)=O [Compound 298] |  |  |  | 201 | no significant decrease | 167 | 334 | 2060 | 
13 | COc1ccc(NC(=O)[C@@H](CCCNC(=N)N)NC(=O)c2cc(NC(=O)[C@@H](CCCNC(=N)N)NC(=O)c3cc(NC(=O)[C@@H](CCCNC(=N)N)NC(=O)c4cc(NC(=O)[C@H](N)CCCNC(=N)N)ccc4OC)ccc3OC)ccc2OC)cc1C(=O)N[C@H](Cc1c[nH]c2ccccc12)C(=O)O [Compound 303] |  |  |  | 192 |  | 189 | 146 | > 10000 | ~500 (≈ 351 µM)
14 | COc1ccc(NC(=O)[C@@H](CCCNC(=N)N)NC(=O)c2cc(NC(=O)[C@@H](CCCNC(=N)N)NC(=O)c3cc(NC(=O)[C@@H](CCCNC(=N)N)NC(=O)c4cc(NC(=O)[C@H](N)CCCNC(=N)N)ccc4OC)ccc3OCC(=O)O)ccc2OC)cc1C(=O)N[C@H](Cc1c[nH]c2ccccc12)C(N)=O [Compound 307] |  |  |  | 120 |  | 118 | 118 | 3780 | ~50 (≈ 34 µM)
15 | COc1ccc(NC(=O)[C@@H](CCCNC(=N)N)NC(=O)c2cc(NC(=O)[C@@H](CCCNC(=N)N)NC(=O)c3cc(NC(=O)[C@@H](CCCNC(=N)N)NC(=O)c4cc(NC(C)=O)ccc4OC)ccc3OCC(=O)O)ccc2OC)cc1C(=O)N[C@H](Cc1c[nH]c2ccccc12)C(N)=O [Compound 308] |  |  |  | 157 |  | 136 | 192 | > 10000 | ~500 (≈ 369 µM)
16 | COc1ccc(NC(=O)[C@H](CCCCN)NC(=O)c2cc(NC(=O)[C@H](CCCCN)NC(=O)c3cc(NC(=O)[C@H](CCC(=O)O)NC(=O)c4cc(NC(=O)[C@@H](N)CCCCN)ccc4OC)ccc3OC)ccc2OC)cc1C(N)=O [Compound 317] |  |  |  | 293 |  | 178 | 873 | 1610 | > 1000
17 | COc1ccc(NC(=O)[C@@H](CCCNC(=N)N)NC(=O)c2cc(NC(=O)[C@@H](CCCNC(=N)N)NC(=O)c3cc(NC(=O)[C@@H](CCC(=O)O)NC(=O)c4cc(NC(=O)[C@H](N)CCCNC(=N)N)ccc4OC)ccc3OC)ccc2OC)cc1C(N)=O [Compound 321] |  |  |  | 441 |  | 225 | 2690 | 1820 | > 1000
18 | COc1ccc(NC(=O)[C@H](CCCNC(=N)N)NC(=O)c2cc(NC(=O)[C@H](CCCNC(=N)N)NC(=O)c3cc(NC(=O)[C@H](CCC(=O)O)NC(=O)c4cc(NC(=O)[C@@H](N)CCCNC(=N)N)ccc4OC)ccc3OC)ccc2OC)cc1C(N)=O [Compound 325] |  |  |  | 505 |  | 213 | 2230 | 2700 | > 1000
